Assay results from paper PMC5298231, “The Malaria Parasite's Lactate Transporter PfFNT Is the Target of Antiplasmodial Compounds Identified in Whole Cell Phenotypic Screens” (PLoS Pathogens, 2017).

Test system: non-injected oocytes
Assay type: cell-based, Xenopus laevis
Settings: full range of inhibitor concentrations

With `COc1ccc2c(c1)OC(O)(C(F)(F)C(F)(F)F)CC2=O` (stereo not shown) [MMV007839] the “Effect on L-[14C]lactate transport into control (non-injected) oocytes” value was “no changes”.
